Data: patent US12098154B2, “Inhibitors of cyclin-dependent kinases” (Dana-Farber Cancer Institute, Inc., priority 2015, dated 2024)

Assays:
CDK7/CycH = CDK7/CycH (Homo sapiens, UniProt P50613); assay: CDK7/CycH inhibition (Tables A1, A2); assay type: biochemical
CDK9/CycT = CDK9/CycT (Homo sapiens, UniProt P50750); assay: CDK9/CycT inhibition (Tables A1, A2); assay type: biochemical
CDK2/CycA = CDK2/CycA (Homo sapiens, UniProt P24941); assay: CDK2/CycA inhibition (Tables A1, A2); assay type: biochemical
Jurkat cells = assay: Jurkat proliferation assay (CellTiter-Glo); assay type: cell-based; details: for IC50: Homo sapiens, Jurkat, read-out: Jurkat IC50
Description: (§1) Jurkat cells were seeded at a density of 25,000 cells/well in 96-well plates. Cells were then treated with the indicated compounds in a 10-pt dose escalation format from 1 nM to 10 μM or DMSO control for 72 hours. After 72 hours, the cells were assayed using CellTiter-Glo Luminescent Cell Viability Assay (Promega) to determine cell viability by measuring the amount of ATP present in each sample cell population, which is an indicator of cell metabolic activity. […] All data points were performed in biological triplicate. Error bars are +/−SD.
as §1, with “hrs.” for “hours.”, “hrs,” for “hours, the”

Sequence of CDK7/CycH (P50613 whole entry): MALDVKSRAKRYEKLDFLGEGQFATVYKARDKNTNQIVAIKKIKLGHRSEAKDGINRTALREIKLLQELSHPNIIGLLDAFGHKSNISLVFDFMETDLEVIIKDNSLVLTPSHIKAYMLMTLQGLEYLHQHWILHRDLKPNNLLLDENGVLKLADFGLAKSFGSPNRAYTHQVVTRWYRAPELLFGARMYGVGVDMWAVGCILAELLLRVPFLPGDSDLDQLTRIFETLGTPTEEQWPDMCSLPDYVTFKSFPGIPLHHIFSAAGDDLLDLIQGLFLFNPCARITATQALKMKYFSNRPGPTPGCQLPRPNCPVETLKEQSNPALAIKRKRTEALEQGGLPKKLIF
Sequence of CDK7/CycH (P51946 whole entry partner): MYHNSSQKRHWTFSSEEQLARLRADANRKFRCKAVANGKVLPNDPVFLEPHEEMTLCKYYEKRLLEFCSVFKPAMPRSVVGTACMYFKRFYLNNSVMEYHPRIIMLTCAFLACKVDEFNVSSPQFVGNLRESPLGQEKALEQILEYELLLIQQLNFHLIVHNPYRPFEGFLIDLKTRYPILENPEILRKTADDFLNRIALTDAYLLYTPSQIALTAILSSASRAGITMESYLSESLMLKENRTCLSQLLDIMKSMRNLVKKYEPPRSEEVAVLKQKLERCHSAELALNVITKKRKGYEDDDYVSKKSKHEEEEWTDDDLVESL
Sequence of CDK9/CycT (P50750 whole entry): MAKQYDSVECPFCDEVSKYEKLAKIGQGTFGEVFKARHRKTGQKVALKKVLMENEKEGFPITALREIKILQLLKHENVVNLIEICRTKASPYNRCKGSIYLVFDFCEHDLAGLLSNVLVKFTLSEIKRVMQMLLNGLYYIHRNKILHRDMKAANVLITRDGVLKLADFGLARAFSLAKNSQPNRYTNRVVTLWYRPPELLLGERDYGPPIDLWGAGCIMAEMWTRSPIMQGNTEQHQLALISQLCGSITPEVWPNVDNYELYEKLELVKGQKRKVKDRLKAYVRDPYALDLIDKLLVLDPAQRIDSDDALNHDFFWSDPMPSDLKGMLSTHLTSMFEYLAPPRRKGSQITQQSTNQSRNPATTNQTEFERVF
Sequence of CDK9/CycT (O60563 whole entry partner): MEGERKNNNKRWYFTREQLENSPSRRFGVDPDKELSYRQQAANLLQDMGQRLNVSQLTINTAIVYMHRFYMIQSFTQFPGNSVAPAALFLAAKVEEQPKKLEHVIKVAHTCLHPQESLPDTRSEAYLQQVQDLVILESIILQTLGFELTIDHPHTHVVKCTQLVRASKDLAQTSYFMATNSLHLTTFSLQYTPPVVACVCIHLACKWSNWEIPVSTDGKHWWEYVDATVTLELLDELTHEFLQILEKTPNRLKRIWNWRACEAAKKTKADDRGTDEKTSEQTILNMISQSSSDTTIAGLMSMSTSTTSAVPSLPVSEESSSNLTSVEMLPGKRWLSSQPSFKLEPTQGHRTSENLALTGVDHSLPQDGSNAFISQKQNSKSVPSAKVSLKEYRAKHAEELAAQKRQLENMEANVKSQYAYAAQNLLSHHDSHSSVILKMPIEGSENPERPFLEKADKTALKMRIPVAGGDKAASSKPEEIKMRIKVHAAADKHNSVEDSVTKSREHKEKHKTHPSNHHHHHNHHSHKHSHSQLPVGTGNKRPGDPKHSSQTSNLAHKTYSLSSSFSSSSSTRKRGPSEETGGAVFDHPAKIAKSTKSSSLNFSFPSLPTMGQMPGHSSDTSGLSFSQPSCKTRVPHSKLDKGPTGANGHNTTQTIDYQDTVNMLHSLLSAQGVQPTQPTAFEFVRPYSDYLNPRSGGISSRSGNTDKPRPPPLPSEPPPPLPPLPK

## C=CC(=O)Nc1cccc(Nc2nc(N[C@H]3CC[C@@H](N(C)C)CC3)nc3c2ncn3C(C)C)c1 [E-1(SB1-E-14), N-(3-(2-((1s,4s)-4-(Dimethylamino)cyclohexylamino)-9-isopropyl-9H-purin-6-ylamino)phenyl)acrylamide]
CDK7/CycH
  IC50: 254 nM
CDK9/CycT
  IC50: 1360 nM
CDK2/CycA
  IC50: 735 nM

## C=CC(=O)Nc1cccc(CNc2cc(N3CCCC[C@H]3CCO)nc3c(CC)cnn23)c1 [MFH-1-49-1, (S)—N-(3-(((3-ethyl-5-(2-(2-hydroxyethyl)piperidin-1-yl)pyrazolo[1,5-a]pyrimidin-7-yl)amino)methyl)phenyl)acrylamide]
CDK7/CycH
  IC50: 165 nM
CDK2/CycA
  IC50: 27.6 nM

## C=CC(=O)Nc1cccc(CNc2cc(N3CCCC[C@@H]3CCO)nc3c(CC)cnn23)c1 [MFH-1-56-1, (R)—N-(3-((3-ethyl-5-(2-(2-hydroxyethyl)piperidin-1-yl)pyrazolo[1,5-a]pyrimidin-7-ylamino)methyl)phenyl)acrylamide]
CDK7/CycH
  IC50: 345 nM
CDK2/CycA
  IC50: 1530 nM

## C=CC(=O)Nc1cccc(Nc2cc(N3CCCC[C@H]3CCO)nc3c(CC)cnn23)c1 [MFH-1-141-1, (S)—N-(3-(3-ethyl-5-(2-(2-hydroxyethyl)piperidin-1-yl)pyrazolo[1,5-a]pyrimidin-7-ylamino)phenyl)acrylamide]
CDK7/CycH
  IC50: 1210 nM
CDK9/CycT
  IC50: 23.9 nM
CDK2/CycA
  IC50: 932 nM

## C=CC(=O)Nc1cccc(Nc2cc(N3CCCC[C@@H]3CCO)nc3c(CC)cnn23)c1 [MFH-1-143-1, (R)—N-(3-(3-ethyl-5-(2-(2-hydroxyethyl)piperidin-1-yl)pyrazolo[1,5-a]pyrimidin-7-ylamino)phenyl)acrylamide]
CDK7/CycH
  IC50: 2510 nM
CDK9/CycT
  IC50: 859 nM
CDK2/CycA
  IC50: > 10000 nM

## C=CC(=O)NC1CCCC(Nc2cc(N3CCCC[C@H]3CCO)nc3c(CC)cnn23)C1 (stereo partly drawn) [MFH-1-167-1, N-(3-(3-ethyl-5-((S)-2-(2-hydroxyethyl)piperidin-1-yl)pyrazolo[1,5-a]pyrimidin-7-ylamino)cyclohexyl)acrylamide]
CDK7/CycH
  IC50: 739 nM
CDK9/CycT
  IC50: 24.7 nM
CDK2/CycA
  IC50: 328 nM

## C=CC(=O)N[C@H]1CC[C@@H](Nc2cc(N3CCCC[C@H]3CCO)nc3c(CC)cnn23)CC1 [MFH-1-169-1, N-((1R,4s)-4-((3-ethyl-5-((S)-2-(2-hydroxyethyl)piperidin-1-yl)pyrazolo[1,5-a]pyrimidin-7-yl)amino)cyclohexyl)acrylamide]
CDK7/CycH
  IC50: 7250 nM
CDK9/CycT
  IC50: 135 nM
CDK2/CycA
  IC50: 3880 nM

## C=CC(=O)N[C@H]1CC[C@H](Nc2cc(N3CCCC[C@H]3CCO)nc3c(CC)cnn23)CC1 [MFH-1-175-1, N-((1S,4r)-4-((3-ethyl-5-((S)-2-(2-hydroxyethyl)piperidin-1-yl)pyrazolo[1,5-a]pyrimidin-7-yl)amino)cyclohexyl)acrylamide]
CDK7/CycH
  IC50: 442 nM
CDK9/CycT
  IC50: 48.2 nM
CDK2/CycA
  IC50: 1080 nM

## C=CC(=O)Nc1ccc(Nc2cc(N3CCCC[C@H]3CCO)nc3c(CC)cnn23)cc1 [MFH-1-187-1, (S)—N-(4-((3-ethyl-5-(2-(2-hydroxyethyl)piperidin-1-yl)pyrazolo[1,5-a]pyrimidin-7-yl)amino)phenyl)acrylamide]
CDK7/CycH
  IC50: 279 nM
CDK9/CycT
  IC50: 23.5 nM
CDK2/CycA
  IC50: 171 nM

## C=CC(=O)Nc1cccc(Nc2nc(N3CCCC[C@H]3CCO)nc3c(CC)cnn23)c1 [MFH-2-53-1, (S)—N-(3-(8-ethyl-2-(2-(2-hydroxyethyl)piperidin-1-yl)pyrazolo[1,5-a][1,3,5]triazin-4-ylamino)phenyl)acrylamide]
CDK7/CycH
  IC50: 1100 nM
CDK9/CycT
  IC50: 61.6 nM
CDK2/CycA
  IC50: 53.6 nM

## C=CC(=O)Nc1cccc(CNc2nc(N[C@H]3CC[C@H](N(C)C)CC3)nc3c(CC)cnn23)c1 [MFH-2-67-1, N-(3-(((2-(((1r,4r)-4-(dimethylamino)cyclohexyl)amino)-8-ethylpyrazolo[1,5-a][1,3,5]triazin-4-yl)amino)methyl)phenyl)acrylamide]
CDK7/CycH
  IC50: 23.7 nM
CDK9/CycT
  IC50: 103 nM
CDK2/CycA
  IC50: 1020 nM

## C=CC(=O)NC1CCCC(Nc2nc(N[C@H]3CC[C@H](N(C)C)CC3)nc3c(CC)cnn23)C1 (stereo partly drawn) [MFH-2-78-1, N-(3-((2-(((1r,4r)-4-(dimethylamino)cyclohexyl)amino)-8-ethylpyrazolo[1,5-a][1,3,5]triazin-4-yl)amino)cyclohexyl)acrylamide]
CDK7/CycH
  IC50: 842 nM
CDK9/CycT
  IC50: 68.7 nM
CDK2/CycA
  IC50: > 1000 nM

## C=CC(=O)Nc1cccc(Nc2cc(N3CCCC(N)C3)nc3c(CC)cnn23)c1 (stereo not drawn) [MFH-3-140-1, N-(3-(5-(3-aminopiperidin-1-yl)-3-ethylpyrazolo[1,5-a]pyrimidin-7-ylamino)phenyl)acrylamide]
CDK7/CycH
  IC50: 356 nM
CDK9/CycT
  IC50: 465 nM
CDK2/CycA
  IC50: 4190 nM

## C=CC(=O)NC1CCCC(Nc2nc(N[C@H]3CC[C@H](N(C)C)CC3)nc3c2ncn3C(C)C)C1 (stereo partly drawn) [SB1-E-15, N-(3-(2-((1r,4r)-4-(Dimethylamino)cyclohexylamino)-9-isopropyl-9H-purin-6-ylamino)cyclohexyl)acrylamide]
CDK7/CycH
  IC50: 763 nM
CDK9/CycT
  IC50: 58.9 nM
CDK2/CycA
  IC50: 1480 nM

## C=CC(=O)NCc1cccc(Nc2nc(N[C@H]3CC[C@H](N(C)C)CC3)nc3c2ncn3C(C)C)c1 [SB1-E-16, N-(3-(2-((1r,4r)-4-(Dimethylamino)cyclohexylamino)-9-isopropyl-9H-purin-6-ylamino)benzyl)acrylamide]
CDK7/CycH
  IC50: 255 nM
CDK9/CycT
  IC50: 116 nM
CDK2/CycA
  IC50: 30.3 nM

## C=CC(=O)Nc1cccc(Nc2nc(N3CCCCC3CCO)nc3c(CC)cnn23)c1 (stereo not drawn) [SB1-E-18, N-(3-(8-Ethyl-2-(2-(2-hydroxyethyl)piperidin-1-yl)pyrazolo[1,5-a][1,3,5]triazin-4-ylamino)phenyl)acrylamide]
CDK7/CycH
  IC50: 461 nM
CDK9/CycT
  IC50: 41.8 nM
Jurkat cells
  Mode of inhibition of Jurkat T-ALL cell proliferation: irreversiably inhibit
  IC50: 19.2 nM
CDK2/CycA
  IC50: 15 nM

## C=CC(=O)Nc1ccc(C(=O)Nc2cccc(Nc3nc(N4CCCCC4CCO)nc4c(CC)cnn34)c2)cc1 (stereo not drawn) [SB1-E-19, 4-Acrylamido-N-(3-(8-ethyl-2-(2-(2-hydroxyethyl)piperidin-1-yl)pyrazolo[1,5-a][1,3,5]triazin-4-ylamino)phenyl)benzamide]
CDK7/CycH
  IC50: 383 nM
CDK9/CycT
  IC50: 123 nM
CDK2/CycA
  IC50: 295 nM

## C=CC(=O)Nc1ccc(C(=O)Nc2cccc(Nc3cc(N[C@H]4CC[C@H](N(C)C)CC4)nc4c(CC)cnn34)c2)cc1 [SB1-E-22, 4-Acrylamido-N-(3-(5-((1r,4r)-4-(dimethylamino)cyclohexylamino)-3-ethylpyrazolo[1,5-a]pyrimidin-7-ylamino)phenyl)benzamide]
CDK7/CycH
  IC50: 246 nM
CDK9/CycT
  IC50: 88.9 nM
CDK2/CycA
  IC50: 28300 nM

## C=CC(=O)Nc1ccc(C(=O)Nc2cccc(Nc3cc(N4CCCCC4CCO)nc4c(CC)cnn34)c2)cc1 (stereo not drawn) [SB1-E-24, 4-Acrylamido-N-(3-(3-ethyl-5-(2-(2-hydroxyethyl)piperidin-1-yl)pyrazolo[1,5-a]pyrimidin-7-ylamino)phenyl)benzamide]
CDK7/CycH
  IC50: 774 nM
CDK9/CycT
  IC50: 140 nM
CDK2/CycA
  IC50: 1260 nM

## C=CC(=O)Nc1ccc(C(=O)Nc2cccc(Nc3cc(N[C@H]4CC[C@H](N(C)C)CC4)nc4c(C(C)C)cnn34)c2)cc1 [SB1-E-25, 4-Acrylamido-N-(3-(5-((1r,4r)-4-(dimethylamino)cyclohexylamino)-3-isopropylpyrazolo[1,5-a]pyrimidin-7-ylamino)phenyl)benzamide]
CDK7/CycH
  IC50: 410 nM
CDK9/CycT
  IC50: 387 nM
CDK2/CycA
  IC50: 33400 nM

## CC(C)n1cnc2c(Nc3cccc(NC(=O)c4ccc(NC(=O)/C=C/CN(C)C)cc4)c3)nc(N[C@H]3CC[C@H](N(C)C)CC3)nc21 [THZ-3-49-1, 4-((E)-4-(Dimethylamino)but-2-enamido)-N-(3-((2-(((1r,4r)-4-(dimethylamino)cyclohexyl)amino)-9-isopropyl-9H-purin-6-yl)amino)phenyl)benzamide]
CDK7/CycH
  IC50: 9.43 nM
CDK9/CycT
  IC50: 445 nM
Jurkat cells
  IC50: 4030 nM

## CC(C)n1cnc2c(Nc3cccc(NC(=O)c4ccc(NC(=O)/C=C/CN(C)C)cc4)c3)nc(N3CCCC(N)C3)nc21 (stereo not drawn) [THZ-4-119-1, (E)-N-(3-((2-(3-Aminopiperidin-1-yl)-9-isopropyl-9H-purin-6-yl)amino)phenyl)-4-(4-(dimethylamino)but-2-enamido)benzamide]
CDK7/CycH
  IC50: 11.5 nM
CDK9/CycT
  IC50: 519 nM
Jurkat cells
  IC50: 1960 nM

## C=CC(=O)Nc1ccc(C(=O)N2CCCC(Nc3cc(N4CCCC(N)C4)nc4c(CC)cnn34)C2)cc1 (stereo not drawn) [THZ-4-141-1]
CDK7/CycH
  IC50: 3600 nM
CDK9/CycT
  IC50: 3570 nM
CDK2/CycA
  IC50: > 1000 nM

## C=CC(=O)Nc1ccc(C(=O)N2CCCC(Nc3cc(NC4CCC(N(C)C)CC4)nc4c(CC)cnn34)C2)cc1 (stereo not drawn) [THZ-4-148-1]
CDK7/CycH
  IC50: > 10000 nM
CDK9/CycT
  IC50: 1710 nM
CDK2/CycA
  IC50: 7050 nM

## C=CC(=O)Nc1ccc(C(=O)N2CCCC(Nc3nc(N4CCCCC4CCO)nc4c3ncn4C(C)C)C2)cc1 (stereo not drawn) [THZ-4-149-1]
CDK7/CycH
  IC50: 4430 nM
CDK9/CycT
  IC50: 2290 nM
CDK2/CycA
  IC50: > 1000 nM

## CC(C)n1cnc2c(Nc3cccc(NC(=O)/C=C/CN(C)C)c3)nc(N[C@H]3CC[C@H](N(C)C)CC3)nc21 [THZ-5-18-1]
CDK7/CycH
  IC50: 121 nM
CDK9/CycT
  IC50: 1530 nM
Jurkat cells
  IC50: 1340 nM

## C=CC(=O)Nc1ccc(C(=O)Nc2cccc(Nc3nc(N[C@H]4CC[C@H](N(C)C)CC4)nc4c3ncn4C(C)C)c2)cc1 [THZ-5-38-1, 4-Acrylamido-N-(3-((2-((trans-4-(dimethylamino)cyclohexyl)amino)-9-isopropyl-9H-purin-6-yl)amino)phenyl)benzamide]
CDK7/CycH
  IC50: 25.9 nM
CDK9/CycT
  IC50: 220 nM
CDK2/CycA
  IC50: 563 nM
